Source: US20170305922A1, “CARM1 INHIBITORS AND USES THEREOF” (Epizyme, Inc., priority 2014, published 2017)

target: T1, Human CARM1 (PRMT4) (Homo sapiens, UniProt Q86X55); test: CARM1 enzyme assay on peptide substrates (3H-SAM Flashplate); details: Biochemical assay; CARM1 0.25 nM, 3H-SAM 30 nM, peptide 250 nM; read-out: Biochem IC50
T1 construct: Flag-CARM1-His was eluted with 200 ug/ml FLAG peptide in buffer A; made in house; host or cells: HEK 293F cells infected with recombinant baculovirus (pFastBacMam)
T1 sequence (Q86X55 1-585 isoform Q86X55-1): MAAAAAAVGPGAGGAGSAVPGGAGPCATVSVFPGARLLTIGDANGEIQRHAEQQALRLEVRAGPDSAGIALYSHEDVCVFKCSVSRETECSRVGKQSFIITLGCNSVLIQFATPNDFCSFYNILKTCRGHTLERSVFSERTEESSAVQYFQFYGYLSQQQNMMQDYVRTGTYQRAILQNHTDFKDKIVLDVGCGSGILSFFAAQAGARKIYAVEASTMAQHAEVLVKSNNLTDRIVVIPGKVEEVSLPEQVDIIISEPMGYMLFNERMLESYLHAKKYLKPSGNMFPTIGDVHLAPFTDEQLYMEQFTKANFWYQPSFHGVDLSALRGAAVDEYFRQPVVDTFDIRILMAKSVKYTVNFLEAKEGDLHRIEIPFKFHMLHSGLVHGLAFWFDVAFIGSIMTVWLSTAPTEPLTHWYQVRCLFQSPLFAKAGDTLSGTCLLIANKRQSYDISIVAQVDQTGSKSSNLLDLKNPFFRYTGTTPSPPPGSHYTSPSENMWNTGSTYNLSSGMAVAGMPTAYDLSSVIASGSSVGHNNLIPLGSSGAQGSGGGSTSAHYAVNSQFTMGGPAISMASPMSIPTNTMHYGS

SMILES	IC50
CNC[C@@H](O)COc1ccc(Cl)c(-c2nc(-c3c(C)noc3C)c(C)c(N3Cc4nc(C)oc4C3)n2)c1 [Example 149]	0.0031 µM
CNC[C@@H](O)COc1ccc(Cl)c(-c2nc(-c3c(C)noc3C)c(C)c(N3Cc4cccnc4C3)n2)c1Cl [Example 150]	0.0162 µM
CNC[C@@H](O)COc1ccc(Cl)c(-c2nc(-c3c(C)noc3C)c(C)c(N3C[C@H]4C[C@@H]3CN4CC(F)(F)F)n2)c1 [Example 151]	0.0121 µM
CNC[C@@H](O)COc1ccc(Cl)c(-c2nc(-c3c(C)c(Cl)nn3C)c(C)c(N3Cc4cnc(OC)nc4C3)n2)c1 [Example 152]	0.0019 µM
CNC[C@@H](O)COc1ccc(Cl)c(-c2nc(-c3c(C)c(Cl)nn3C)c(C)c(N3Cc4cnc(N5CCC5)nc4C3)n2)c1 [Example 153]	0.0019 µM
CNC[C@@H](O)COc1ccc(Cl)c(-c2nc(-c3c(C)noc3C)c(C)c(N3Cc4ncnc(OCC(F)F)c4C3)n2)c1 [Example 154]	0.0031 µM
CCOc1ncc2c(n1)CN(c1nc(-c3cc(OC[C@H](O)CNC)ccc3Cl)nc(-c3c(C)c(Cl)nn3C)c1C)C2 [Example 155]	0.0024 µM
CCN(C)c1ncc2c(n1)CN(c1nc(-c3cc(OC[C@H](O)CNC)ccc3Cl)nc(-c3c(C)noc3C)c1C)C2 [Example 157]	0.0024 µM
CNC[C@@H](O)COc1ccc(Cl)c(-c2nc(-c3c(C)noc3C)c(C)c(N3Cc4nccc(C)c4C3)n2)c1 [Example 164]	0.0022 µM
CNC[C@@H](O)COc1ccc(Cl)c(-c2nc(-c3c(C)noc3C)c(C)c(N3CC4(CCC(C(=O)N5CCOCC5)CC4)C3)n2)c1 [Example 165]	0.0058 µM
CNC[C@@H](O)COc1ccc(Cl)c(-c2nc(-c3c(C)noc3C)c(C)c(N3Cc4cnc(N5CCC5C)nc4C3)n2)c1 (stereo partly shown) [Example 167]	0.0019 µM
CNC[C@@H](O)COc1ccc(Cl)c(-c2nc(-c3c(C)c(Cl)nn3C)c(C)c(N3Cc4cnc(N(C)C)nc4C3)n2)c1 [Example 168]	0.0025 µM
CNC[C@@H](O)COc1ccc(Cl)c(-c2nc(-c3c(C)noc3C)c(C)c(N3Cc4cnc(OC)cc4C3)n2)c1 [Example 169]	0.0021 µM
CNC[C@@H](O)COc1ccc(Cl)c(-c2nc(-c3c(C)noc3C)c(C)c(N3Cc4ccc(OC)nc4C3)n2)c1 [Example 170]	0.0019 µM
CCc1onc(C)c1-c1nc(-c2cc(OC[C@H](O)CNC)ccc2Cl)nc(N2CC3(CC(OC)C3)C2)c1C [Example 171]	0.0058 µM

More lines, now with the values ahead:

IC50	SMILES
0.0028 µM	CNC[C@@H](O)COc1ccc(Cl)c(-c2nc(-c3c(C)noc3C)c(C)c(N3Cc4cnc(N5CC(OC)C5)nc4C3)n2)c1 [Example 147]
0.0035 µM	CNC[C@@H](O)COc1ccc(Cl)c(-c2nc(-c3c(C)c(Cl)nn3C)c(C)c(N3Cc4cnc(OCC(F)F)nc4C3)n2)c1 [Example 156]
0.0029 µM	CNC[C@@H](O)COc1ccc(Cl)c(-c2nc(-c3c(C)noc3C)c(C)c(N3Cc4cnc(N(C)C)nc4C3)n2)c1 [Example 158]
0.002 µM	CCN(C)c1ncc2c(n1)CN(c1nc(-c3cc(OC[C@H](O)CNC)ccc3Cl)nc(-c3c(C)c(Cl)nn3C)c1C)C2 [Example 159]
0.0069 µM	CNC[C@@H](O)COc1ccc(Cl)c(-c2nc(-c3c(C)noc3C)c(C)c(N3CC4(CC(C(=O)N5CC(OC)C5)C4)C3)n2)c1 [Example 162]
0.0062 µM	CNC[C@@H](O)COc1ccc(Cl)c(-c2nc(-c3c(C)noc3C)c(C)c(N3CC4(CC(C(=O)N5CCC5)C4)C3)n2)c1 [Example 163]
0.0051 µM	CNC[C@@H](O)COc1ccc(Cl)c(-c2nc(-c3c(C)noc3C)c(C)c(N3Cc4cnc(OC5CCOCC5)nc4C3)n2)c1 [Example 166]
0.0047 µM	CNC[C@@H](O)COc1ccc(Cl)c(-c2nc(-c3c(C)noc3C)c(C)c(N3CC4(CCC(OCC(F)F)CC4)C3)n2)c1 [Example 172]

system: asymmetric di-methyl PABP1 in RKO cells; test: RKO methylation assay: In Cell Western (ICW) for asymmetric di-methyl PABP1 (PABP1me2a); details: Homo sapiens, RKO, 48 h, Cellular-based (PABP1me2a) ICW (In Cell Western) assay
Summary of the method: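 In-cell western on compound-exposed RKO cells (48 hours): asymmetric di-methyl PABP1 detected by antibody at 800 nm, DNA content by DRAQ5 at 700 nm. Percent inhibition from signal ratios against DMSO (minimum) and 20 μM reference compound (maximum) wells; IC50 curves fitted from triplicates.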

SMILES	IC50
CNC[C@@H](O)COc1ccc(Cl)c(-c2nc(-c3c(C)noc3C)c(C)c(N3Cc4nc(C)oc4C3)n2)c1 [Example 149]	0.052 µM
CNC[C@@H](O)COc1ccc(Cl)c(-c2nc(-c3c(C)noc3C)c(C)c(N3Cc4cccnc4C3)n2)c1Cl [Example 150]	2.02 µM
CNC[C@@H](O)COc1ccc(Cl)c(-c2nc(-c3c(C)noc3C)c(C)c(N3C[C@H]4C[C@@H]3CN4CC(F)(F)F)n2)c1 [Example 151]	0.668 µM
CNC[C@@H](O)COc1ccc(Cl)c(-c2nc(-c3c(C)c(Cl)nn3C)c(C)c(N3Cc4cnc(OC)nc4C3)n2)c1 [Example 152]	0.018 µM
CNC[C@@H](O)COc1ccc(Cl)c(-c2nc(-c3c(C)c(Cl)nn3C)c(C)c(N3Cc4cnc(N5CCC5)nc4C3)n2)c1 [Example 153]	0.015 µM
CNC[C@@H](O)COc1ccc(Cl)c(-c2nc(-c3c(C)noc3C)c(C)c(N3Cc4ncnc(OCC(F)F)c4C3)n2)c1 [Example 154]	0.057 µM
CCOc1ncc2c(n1)CN(c1nc(-c3cc(OC[C@H](O)CNC)ccc3Cl)nc(-c3c(C)c(Cl)nn3C)c1C)C2 [Example 155]	0.018 µM
CCN(C)c1ncc2c(n1)CN(c1nc(-c3cc(OC[C@H](O)CNC)ccc3Cl)nc(-c3c(C)noc3C)c1C)C2 [Example 157]	0.026 µM
CNC[C@@H](O)COc1ccc(Cl)c(-c2nc(-c3c(C)noc3C)c(C)c(N3Cc4nccc(C)c4C3)n2)c1 [Example 164]	0.055 µM
CNC[C@@H](O)COc1ccc(Cl)c(-c2nc(-c3c(C)noc3C)c(C)c(N3CC4(CCC(C(=O)N5CCOCC5)CC4)C3)n2)c1 [Example 165]	0.322 µM
CNC[C@@H](O)COc1ccc(Cl)c(-c2nc(-c3c(C)noc3C)c(C)c(N3Cc4cnc(N5CCC5C)nc4C3)n2)c1 (stereo partly shown) [Example 167]	0.019 µM
CNC[C@@H](O)COc1ccc(Cl)c(-c2nc(-c3c(C)c(Cl)nn3C)c(C)c(N3Cc4cnc(N(C)C)nc4C3)n2)c1 [Example 168]	0.026 µM
CNC[C@@H](O)COc1ccc(Cl)c(-c2nc(-c3c(C)noc3C)c(C)c(N3Cc4cnc(OC)cc4C3)n2)c1 [Example 169]	0.034 µM
CNC[C@@H](O)COc1ccc(Cl)c(-c2nc(-c3c(C)noc3C)c(C)c(N3Cc4ccc(OC)nc4C3)n2)c1 [Example 170]	0.038 µM
CCc1onc(C)c1-c1nc(-c2cc(OC[C@H](O)CNC)ccc2Cl)nc(N2CC3(CC(OC)C3)C2)c1C [Example 171]	0.174 µM

More lines, now with the values ahead:

IC50	SMILES
0.016 µM	CNC[C@@H](O)COc1ccc(Cl)c(-c2nc(-c3c(C)noc3C)c(C)c(N3Cc4cnc(N5CC(OC)C5)nc4C3)n2)c1 [Example 147]
0.031 µM	CNC[C@@H](O)COc1ccc(Cl)c(-c2nc(-c3c(C)c(Cl)nn3C)c(C)c(N3Cc4cnc(OCC(F)F)nc4C3)n2)c1 [Example 156]
0.018 µM	CNC[C@@H](O)COc1ccc(Cl)c(-c2nc(-c3c(C)noc3C)c(C)c(N3Cc4cnc(N(C)C)nc4C3)n2)c1 [Example 158]
0.039 µM	CCN(C)c1ncc2c(n1)CN(c1nc(-c3cc(OC[C@H](O)CNC)ccc3Cl)nc(-c3c(C)c(Cl)nn3C)c1C)C2 [Example 159]
0.55 µM	CNC[C@@H](O)COc1ccc(Cl)c(-c2nc(-c3c(C)noc3C)c(C)c(N3CC4(CC(C(=O)N5CC(OC)C5)C4)C3)n2)c1 [Example 162]
0.292 µM	CNC[C@@H](O)COc1ccc(Cl)c(-c2nc(-c3c(C)noc3C)c(C)c(N3CC4(CC(C(=O)N5CCC5)C4)C3)n2)c1 [Example 163]
0.049 µM	CNC[C@@H](O)COc1ccc(Cl)c(-c2nc(-c3c(C)noc3C)c(C)c(N3Cc4cnc(OC5CCOCC5)nc4C3)n2)c1 [Example 166]
0.057 µM	CNC[C@@H](O)COc1ccc(Cl)c(-c2nc(-c3c(C)noc3C)c(C)c(N3CC4(CCC(OCC(F)F)CC4)C3)n2)c1 [Example 172]
